For one series, the system named is Saccharomyces cerevisiae. Nature of the series: Antifungal activity against Saccharomyces cerevisiae ATCC 9763 measured after 24 hrs. The format is functional.
The subject of another series is Candida albicans. Nature of the series: Antifungal activity against Candida albicans ATCC 10231 measured after 24 hrs. The format is functional.
Series [1] is described as follows: Cytotoxicity against […] NFF measured after 72 hrs. The format is toxicity, cell-based. Conditions: NFF cells.
Another series relates to Eragrostis tef. Nature of the series: Herbicidal activity against Eragrostis tef seed measured after 24 hrs. The conditions noted are these: in Eragrostis tef.
Another series concerns Bacillus subtilis. Briefly: Antibacterial activity against Bacillus subtilis ATCC 6633 measured after 24 hrs. The format is functional.
Series [2] can be described thus: Cytotoxicity against mouse NS-1 cells measured after 72 hrs. The format is toxicity, cell-based.
For a further series, the system named is Tritrichomonas foetus. Nature of the series: Anti-protozoal Tritrichomonas foetus KV-1 measured after 24 hrs. The format is functional.
A further series relates to Staphylococcus aureus. Nature of the series: Antibacterial activity against Staphylococcus aureus ATCC 25923 measured after 24 hrs. The format is functional.

SMILES strings stand for the structures.

Here are results for 2 molecules from ChEMBL document CHEMBL5252556, “Fuligopyrones from the Fruiting Bodies of Myxomycete Fuligo septica Offer Short-Term Protection from Abiotic Stress Induced by UV Radiation” (J Nat Prod, 2023).

On to `O=C(/C=C/C=C/c1ccc(O)cc1)NCCc1cc(O)cc(=O)o1`, for which the MIC in the series on Saccharomyces cerevisiae is more than 200 µg/mL; with Candida albicans it was more than 200 µg/mL; against Eragrostis tef it was more than 100 µg/mL; in the series on Bacillus subtilis, more than 100 µg/mL; in the series with Staphylococcus aureus it was more than 100 µg/mL. The IC50 at 72 h in series [1] and in series [2] was more than 200 µM throughout. This molecule showed an LD99 in the series with Tritrichomonas foetus of more than 100 µg/mL.

Turning to `O=C(/C=C/C=C/c1ccc(O)cc1)NCCc1cc(O)c(Cl)c(=O)o1`, the MIC in the series with Saccharomyces cerevisiae was more than 200 µg/mL; against Candida albicans it was more than 200 µg/mL; against Eragrostis tef, more than 100 µg/mL; in the series on Bacillus subtilis it was more than 100 µg/mL; in the series with Staphylococcus aureus it was more than 100 µg/mL. Besides, the IC50 at 72 h in series [1] and in series [2] was more than 200 µM each time. Further, the LD99 with Tritrichomonas foetus was more than 100 µg/mL.
